This note sets out measurements from PubChem BioAssay (NCI).

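Following 48 hours of exposure in 96-well plates, responses at five concentrations were used to interpolate endpoints linearly. TGI: total growth inhibition.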 A value given as a limit tells only on which side of the number the result lay.

Some test systems named below: TK-10 renal; KM20L2 colon; UACC-257 melanoma; CCRF-CEM leukemia; DMS 114 small cell lung; OVCAR-8 ovarian; DLD-1 colon; SF-268 CNS; M14 melanoma; A498 renal; M19-MEL melanoma; BT-549 breast.
Holding throughout (experiment): NCI-60 cell line screen, 48 h

Regarding `Cc1c(Cl)c2ccccc2n1S(=O)(=O)c1ccccc1`, the TGI in the test on TK-10 renal, with KM20L2 colon, with UACC-257 melanoma, with CCRF-CEM leukemia, in the test with DMS 114 small cell lung and in the test with OVCAR-8 ovarian was over 100 µM each time. Moreover, the TGI in the test with DLD-1 colon, in the test with SF-268 CNS and in the test on M14 melanoma was over 100 µM throughout.
Turning to `CN1CCCC2(CCCc3ccccc32)C1` (centres undefined), the TGI in the test with TK-10 renal, with KM20L2 colon, in the test with UACC-257 melanoma, in the test with CCRF-CEM leukemia, in the test with DMS 114 small cell lung and in the test with OVCAR-8 ovarian was over 100 µM each time. The TGI in the test with A498 renal, in the test with M19-MEL melanoma, in the test with DLD-1 colon, in the test on SF-268 CNS and in the test with M14 melanoma was over 100 µM throughout.
For the compound `Cc1[nH]c2c(c1C)S(=O)(=O)c1cc3ccccc3nc1N2`, the TGI in the test on TK-10 renal is over 100 µM; with UACC-257 melanoma, over 100 µM; with CCRF-CEM leukemia, 45.8 µM; in the test with BT-549 breast it was over 100 µM; with OVCAR-8 ovarian, 30.4 µM; in the test with A498 renal, over 100 µM. Also, the TGI in the test with SF-268 CNS is over 100 µM; in the test on M14 melanoma it was 62.5 µM.
For `O=C1NC(SSC2=NNC3(C(=O)N2)c2ccccc2-c2ccccc23)=NNC12c1ccccc1-c1ccccc12`, the TGI with TK-10 renal, in the test with UACC-257 melanoma, in the test on CCRF-CEM leukemia, in the test with BT-549 breast, in the test with OVCAR-8 ovarian and with A498 renal was over 10 µM in each case. Moreover, the TGI in the test on SF-268 CNS and in the test on M14 melanoma was over 10 µM throughout.
Regarding `CCN(CC)CC1CCCCN1CC(=O)N1c2ccccc2NC(=O)CC1C` (centres undefined), the TGI in the test on TK-10 renal, in the test with UACC-257 melanoma, in the test on CCRF-CEM leukemia, with BT-549 breast, in the test on OVCAR-8 ovarian and in the test with A498 renal was over 100 µM in each case. Further, the TGI with SF-268 CNS and in the test with M14 melanoma was over 100 µM throughout.
With `Clc1ccc(SC(/C=C/NNC2=NC(c3ccccc3)C(c3ccccc3)=NN2)c2ccccc2)cc1` (centres undefined), the TGI was over 100 µM in the test with TK-10 renal; 53.7 µM with KM20L2 colon; 55.2 µM in the test with UACC-257 melanoma; 73.1 µM in the test on CCRF-CEM leukemia; 75.6 µM with DMS 114 small cell lung; over 100 µM with OVCAR-8 ovarian. The TGI is over 100 µM in the test on A498 renal; 99.4 µM in the test with M19-MEL melanoma; over 100 µM in the test on DLD-1 colon; 78.1 µM in the test with SF-268 CNS; 46 µM with M14 melanoma.
As for `O=[N+]([O-])C1CC/C(=N/O)c2nonc21` (centres undefined), the TGI with TK-10 renal, in the test on UACC-257 melanoma, with CCRF-CEM leukemia, in the test on BT-549 breast, in the test with OVCAR-8 ovarian and in the test with A498 renal was over 10 µM throughout. The TGI in the test with SF-268 CNS and in the test on M14 melanoma was over 10 µM in each case.
On to `COc1ccc2nc3ccc(OC)cc3c(SCCO)c2c1`, for which the TGI with TK-10 renal is over 100 µM; in the test with UACC-257 melanoma, over 100 µM; with CCRF-CEM leukemia it was over 31.1 µM; in the test with BT-549 breast, over 100 µM; in the test on OVCAR-8 ovarian, over 55.4 µM; in the test with A498 renal, over 100 µM. Also, the TGI in the test on SF-268 CNS was 96.9 µM; with M14 melanoma it was over 100 µM.
As for `O=CN1CCN(C(=O)c2ccc(Cl)cc2Cl)C1=S`, the TGI with TK-10 renal, with UACC-257 melanoma, with CCRF-CEM leukemia, in the test on BT-549 breast, in the test on OVCAR-8 ovarian and with A498 renal was over 100 µM each time. Further, the TGI in the test on SF-268 CNS and in the test on M14 melanoma was over 100 µM each time.
For the compound `CC(=O)OCCCOCn1c(Cc2ccccc2)c(C)c(=O)[nH]c1=O`, the TGI in the test with TK-10 renal, with UACC-257 melanoma, in the test on CCRF-CEM leukemia, in the test with BT-549 breast, in the test on OVCAR-8 ovarian and in the test on A498 renal was over 100 µM throughout. In addition, the TGI in the test with SF-268 CNS and with M14 melanoma was over 100 µM in each case.
For the compound `O=C(c1ccc(Cl)cc1)c1ccc(OCCCOc2ccc(C(=O)c3ccc(Cl)cc3)cc2)cc1`, the TGI with TK-10 renal, with KM20L2 colon, with UACC-257 melanoma, in the test with CCRF-CEM leukemia, in the test with DMS 114 small cell lung and with OVCAR-8 ovarian was over 100 µM in each case. Further, the TGI in the test on M19-MEL melanoma, with DLD-1 colon, in the test on SF-268 CNS and in the test with M14 melanoma was over 100 µM in each case.
`C[C@H](CCC(=O)NCCS(=O)(=O)O)[C@H]1CC[C@H]2[C@@H]3CC[C@@H]4C[C@H](O)CC[C@]4(C)[C@H]3CC[C@]12C`: the TGI in the test on TK-10 renal, in the test with UACC-257 melanoma, in the test on CCRF-CEM leukemia, in the test on BT-549 breast, in the test on OVCAR-8 ovarian and in the test with A498 renal was over 100 µM throughout. Moreover, the TGI in the test on SF-268 CNS and in the test on M14 melanoma was over 100 µM each time.
Regarding `O=S(=O)(O)c1cc(O)c2c(N=Cc3ccccc3O)cc(S(=O)(=O)O)cc2c1`, the TGI in the test on TK-10 renal, in the test with UACC-257 melanoma, in the test with CCRF-CEM leukemia, in the test with BT-549 breast, in the test on OVCAR-8 ovarian and in the test on A498 renal was over 100 µM each time. The TGI in the test on SF-268 CNS and in the test with M14 melanoma was over 100 µM throughout.
As to `COC(=O)C1C/C(=C/N(C)C)C(=S)N1` (centres undefined), the TGI with TK-10 renal, with UACC-257 melanoma, in the test with CCRF-CEM leukemia, in the test with BT-549 breast, in the test with OVCAR-8 ovarian and in the test on A498 renal was over 100 µM each time. Also, the TGI in the test on SF-268 CNS and with M14 melanoma was over 100 µM throughout.
As to `COC(=O)CCC(=O)NC1=C(NCc2ccccc2)C(=O)c2ccccc2C1=O`, the TGI in the test on TK-10 renal is over 100 µM; in the test with UACC-257 melanoma, 34.1 µM; in the test on CCRF-CEM leukemia, over 100 µM; with BT-549 breast, over 100 µM; in the test on OVCAR-8 ovarian, over 100 µM; in the test with A498 renal it was over 100 µM. Moreover, the TGI in the test on SF-268 CNS and in the test with M14 melanoma was over 100 µM in each case.
